Test results from the NIST ThermoML archive (doi:10.1021/je201009c).
Numbers after ± are expanded uncertainties.

Assay: xn = mol fraction of the nth substance listed
Conditions: for surface tension liquid-gas: Capillary rise; for viscosity / mass density: 101 kPa, Liquid; for viscosity: Falling or rolling sphere viscometry; for mass density: Vibrating tube method

SMILES: CC(=O)OCc1ccccc1 [benzyl ethanoate] + OCc1ccccc1
- surface tension liquid-gas (293.15 K, x1 = 0.1001): 39.2 ± 0.4 mN/m
- surface tension liquid-gas (293.15 K, x1 = 0.2001): 39.2 ± 0.4 mN/m
- surface tension liquid-gas (293.15 K, x1 = 0.3): 39.1 ± 0.4 mN/m
- surface tension liquid-gas (293.15 K, x1 = 0.4001): 39 ± 0.4 mN/m
- surface tension liquid-gas (293.15 K, x1 = 0.5): 38.7 ± 0.4 mN/m
- surface tension liquid-gas (293.15 K, x1 = 0.6001): 38.4 ± 0.4 mN/m
- surface tension liquid-gas (293.15 K, x1 = 0.6999): 38.1 ± 0.4 mN/m
- surface tension liquid-gas (293.15 K, x1 = 0.8): 37.8 ± 0.4 mN/m
- surface tension liquid-gas (293.15 K, x1 = 0.9): 37.5 ± 0.4 mN/m
- surface tension liquid-gas (293.15 K, x1 = 1): 37.3 ± 0.5 mN/m
- viscosity (293.15 K, x1 = 0.05): 5.782 ± 0.05 mPa·s
- viscosity (293.15 K, x1 = 0.1001): 5.319 ± 0.046 mPa·s
- viscosity (293.15 K, x1 = 0.1502): 4.905 ± 0.043 mPa·s
- viscosity (293.15 K, x1 = 0.2001): 4.536 ± 0.04 mPa·s
- viscosity (293.15 K, x1 = 0.25): 4.214 ± 0.038 mPa·s
- viscosity (293.15 K, x1 = 0.3): 3.927 ± 0.036 mPa·s
- viscosity (293.15 K, x1 = 0.3498): 3.678 ± 0.034 mPa·s
- viscosity (293.15 K, x1 = 0.4001): 3.454 ± 0.033 mPa·s
- viscosity (293.15 K, x1 = 0.45): 3.252 ± 0.031 mPa·s
- viscosity (293.15 K, x1 = 0.5): 3.087 ± 0.03 mPa·s
- viscosity (293.15 K, x1 = 0.5501): 2.93 ± 0.029 mPa·s
- viscosity (293.15 K, x1 = 0.6001): 2.795 ± 0.028 mPa·s
- viscosity (293.15 K, x1 = 0.65): 2.684 ± 0.028 mPa·s
- viscosity (293.15 K, x1 = 0.6999): 2.589 ± 0.027 mPa·s
- viscosity (293.15 K, x1 = 0.7502): 2.505 ± 0.027 mPa·s
- viscosity (293.15 K, x1 = 0.8): 2.428 ± 0.026 mPa·s
- viscosity (293.15 K, x1 = 0.85): 2.376 ± 0.026 mPa·s
- viscosity (293.15 K, x1 = 0.9): 2.343 ± 0.026 mPa·s
- viscosity (293.15 K, x1 = 0.95): 2.326 ± 0.026 mPa·s
- viscosity (293.15 K, x1 = 1): 2.324 ± 0.026 mPa·s
- mass density (293.15 K, x1 = 0.05): 1046.29 ± 0.19 kg/m3
- mass density (293.15 K, x1 = 0.1001): 1047.03 ± 0.19 kg/m3
- mass density (293.15 K, x1 = 0.1502): 1047.73 ± 0.2 kg/m3
- mass density (293.15 K, x1 = 0.2001): 1048.38 ± 0.2 kg/m3
- mass density (293.15 K, x1 = 0.25): 1048.99 ± 0.2 kg/m3
- mass density (293.15 K, x1 = 0.3): 1049.58 ± 0.21 kg/m3
- mass density (293.15 K, x1 = 0.3498): 1050.15 ± 0.21 kg/m3
- mass density (293.15 K, x1 = 0.4001): 1050.71 ± 0.22 kg/m3
- mass density (293.15 K, x1 = 0.45): 1051.24 ± 0.22 kg/m3
- mass density (293.15 K, x1 = 0.5): 1051.77 ± 0.23 kg/m3
- mass density (293.15 K, x1 = 0.5501): 1052.26 ± 0.23 kg/m3
- mass density (293.15 K, x1 = 0.6001): 1052.74 ± 0.24 kg/m3
- mass density (293.15 K, x1 = 0.65): 1053.19 ± 0.24 kg/m3
- mass density (293.15 K, x1 = 0.6999): 1053.64 ± 0.25 kg/m3
- mass density (293.15 K, x1 = 0.7502): 1054.03 ± 0.26 kg/m3
- mass density (293.15 K, x1 = 0.8): 1054.42 ± 0.26 kg/m3
- mass density (293.15 K, x1 = 0.85): 1054.77 ± 0.27 kg/m3
- mass density (293.15 K, x1 = 0.9): 1055.11 ± 0.28 kg/m3
- mass density (293.15 K, x1 = 0.95): 1055.46 ± 0.29 kg/m3
- mass density (293.15 K, x1 = 1): 1055.81 ± 0.3 kg/m3
- surface tension liquid-gas (303.15 K, x1 = 0.1001): 38 ± 0.4 mN/m
- surface tension liquid-gas (303.15 K, x1 = 0.2001): 37.9 ± 0.4 mN/m
- surface tension liquid-gas (303.15 K, x1 = 0.3): 37.8 ± 0.4 mN/m
- surface tension liquid-gas (303.15 K, x1 = 0.4001): 37.5 ± 0.4 mN/m
- surface tension liquid-gas (303.15 K, x1 = 0.5): 37.1 ± 0.4 mN/m
- surface tension liquid-gas (303.15 K, x1 = 0.6001): 36.7 ± 0.4 mN/m
- surface tension liquid-gas (303.15 K, x1 = 0.6999): 36.3 ± 0.4 mN/m
- surface tension liquid-gas (303.15 K, x1 = 0.8): 36 ± 0.4 mN/m
- surface tension liquid-gas (303.15 K, x1 = 0.9): 35.8 ± 0.4 mN/m
- surface tension liquid-gas (303.15 K, x1 = 1): 35.6 ± 0.4 mN/m
- viscosity (303.15 K, x1 = 0.05): 4.21 ± 0.038 mPa·s
- viscosity (303.15 K, x1 = 0.1001): 3.894 ± 0.036 mPa·s
- viscosity (303.15 K, x1 = 0.1502): 3.623 ± 0.034 mPa·s
- viscosity (303.15 K, x1 = 0.2001): 3.378 ± 0.032 mPa·s
- viscosity (303.15 K, x1 = 0.25): 3.165 ± 0.03 mPa·s
- viscosity (303.15 K, x1 = 0.3): 2.972 ± 0.029 mPa·s
- viscosity (303.15 K, x1 = 0.3498): 2.806 ± 0.028 mPa·s
- viscosity (303.15 K, x1 = 0.4001): 2.662 ± 0.027 mPa·s
- viscosity (303.15 K, x1 = 0.45): 2.535 ± 0.026 mPa·s
- viscosity (303.15 K, x1 = 0.5): 2.432 ± 0.026 mPa·s
- viscosity (303.15 K, x1 = 0.5501): 2.332 ± 0.025 mPa·s
- viscosity (303.15 K, x1 = 0.6001): 2.234 ± 0.025 mPa·s
- viscosity (303.15 K, x1 = 0.65): 2.171 ± 0.024 mPa·s
- viscosity (303.15 K, x1 = 0.6999): 2.091 ± 0.024 mPa·s
- viscosity (303.15 K, x1 = 0.7502): 2.035 ± 0.024 mPa·s
- viscosity (303.15 K, x1 = 0.8): 1.985 ± 0.023 mPa·s
- viscosity (303.15 K, x1 = 0.85): 1.941 ± 0.023 mPa·s
- viscosity (303.15 K, x1 = 0.9): 1.902 ± 0.023 mPa·s
- viscosity (303.15 K, x1 = 0.95): 1.867 ± 0.023 mPa·s
- viscosity (303.15 K, x1 = 1): 1.836 ± 0.023 mPa·s
- mass density (303.15 K, x1 = 0.05): 1038.18 ± 0.19 kg/m3
- mass density (303.15 K, x1 = 0.1001): 1038.83 ± 0.19 kg/m3
- mass density (303.15 K, x1 = 0.1502): 1039.44 ± 0.19 kg/m3
- mass density (303.15 K, x1 = 0.2001): 1040.01 ± 0.2 kg/m3
- mass density (303.15 K, x1 = 0.25): 1040.58 ± 0.2 kg/m3
- mass density (303.15 K, x1 = 0.3): 1041.11 ± 0.2 kg/m3
- mass density (303.15 K, x1 = 0.3498): 1041.61 ± 0.21 kg/m3
- mass density (303.15 K, x1 = 0.4001): 1042.1 ± 0.21 kg/m3
- mass density (303.15 K, x1 = 0.45): 1042.57 ± 0.22 kg/m3
- mass density (303.15 K, x1 = 0.5): 1043.01 ± 0.22 kg/m3
- mass density (303.15 K, x1 = 0.5501): 1043.43 ± 0.23 kg/m3
- mass density (303.15 K, x1 = 0.6001): 1043.84 ± 0.23 kg/m3
- mass density (303.15 K, x1 = 0.65): 1044.24 ± 0.24 kg/m3
- mass density (303.15 K, x1 = 0.6999): 1044.62 ± 0.25 kg/m3
- mass density (303.15 K, x1 = 0.7502): 1044.99 ± 0.25 kg/m3
- mass density (303.15 K, x1 = 0.8): 1045.35 ± 0.26 kg/m3
- mass density (303.15 K, x1 = 0.85): 1045.7 ± 0.27 kg/m3
- mass density (303.15 K, x1 = 0.9): 1046.05 ± 0.27 kg/m3
- mass density (303.15 K, x1 = 0.95): 1046.4 ± 0.28 kg/m3
- mass density (303.15 K, x1 = 1): 1046.74 ± 0.29 kg/m3
